From patent publication US20090010888A1, “Use of cytochrome P450 reductase as insecticidal target” (priority 2004, published 2009) come the findings set out here.

For orientation: IC50 means the concentration that gives 50% inhibition. In general, Km refers to the concentration of substrate that gives half-maximal velocity.

One data set addresses T1, human CPR (Homo sapiens, UniProt P16435).
T1 sequence (P16435 43-677 limits assumed): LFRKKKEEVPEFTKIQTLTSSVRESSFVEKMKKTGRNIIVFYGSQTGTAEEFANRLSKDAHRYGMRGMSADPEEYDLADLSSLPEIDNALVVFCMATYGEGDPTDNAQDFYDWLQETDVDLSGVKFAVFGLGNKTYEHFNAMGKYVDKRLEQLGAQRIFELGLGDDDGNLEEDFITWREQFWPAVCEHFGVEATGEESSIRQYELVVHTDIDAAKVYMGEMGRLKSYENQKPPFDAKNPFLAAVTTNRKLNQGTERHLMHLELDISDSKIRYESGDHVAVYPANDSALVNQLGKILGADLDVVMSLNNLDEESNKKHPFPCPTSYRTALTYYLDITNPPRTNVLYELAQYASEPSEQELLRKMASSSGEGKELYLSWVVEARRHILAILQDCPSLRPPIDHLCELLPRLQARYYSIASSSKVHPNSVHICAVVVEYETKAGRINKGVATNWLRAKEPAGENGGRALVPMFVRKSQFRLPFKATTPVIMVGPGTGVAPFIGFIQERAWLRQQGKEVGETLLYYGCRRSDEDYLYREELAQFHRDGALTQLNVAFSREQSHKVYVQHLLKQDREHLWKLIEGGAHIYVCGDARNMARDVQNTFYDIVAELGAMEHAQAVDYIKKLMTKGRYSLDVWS
Description: Cytochrome c reduction by purified human CPR (inhibition and kinetics). In kind it is biochemical. The note with it: for IC50: 25° C., 50 μM cytochrome c, 15 μM NADPH. The method, then:
(§1) Errors are deviation from the fit of the curve (GraFit 5.06).
(§2) Cytochrome c assays and enzyme kinetic measurements were carried out 25° C. as described^19, using 0.75 pmol purified AgCPR or hCPR. Apparent kinetic parameters (non-linear fitting: Michaelis-Menten equation) and IC50 values were calculated using GraFit version 5.06.

Data set [1] relates to A. gambiae CYP6Z2 and AgCPR. The data set is described as follows: 7-benzyloxyresorufin (BR) dealkylation, E. coli membranes coexpressing CYP6Z2 and AgCPR. The note with it: read-out: IC50 for inhibition of mosquito CYP6Z2 BR dealkylation; 5 μM BR, 125 microM NADPH, 37° C. On the procedure:
(§3) Measurement of P450 activity was carried out using E. coli membranes coexpressing A. gambiae CYP6Z2 and AgCPR or human CYP3A4 and human CPR. […] Rates were recorded for 5 min at 37° C. using a fluorescence plate reader (Labsystems Fluoroskan Ascent-FL) set to measure λEx 530 λEm585 (BR assay) or λEx 405 λEm530 (BQ assay). Percentage activities were calculated and IC50 curves were plotted using GraFit version 5.
(§4) For P450 assays, E. coli membranes co-expressing human CYP3A4 and CPR were produced as described. […] Plates were preincubated for 5 min at 37° C. before addition of 5 μl of 5 mM NADPH. Rates were recorded for 5 min at 37° C. using a fluorescence plate reader (Labsystems Fluoroskan Ascent-FL) set to measure λEx 530 λEm585 (BR assay) or λEx 405 λEm530 (BQ assay).
(§5) Percentage activities were calculated and IC50 curves were plotted using GraFit version 5.

The target of data set [2] is T2, human CYP3A4 and human CPR (Homo sapiens, UniProt P16435).
T2 sequence (P16435 1-677): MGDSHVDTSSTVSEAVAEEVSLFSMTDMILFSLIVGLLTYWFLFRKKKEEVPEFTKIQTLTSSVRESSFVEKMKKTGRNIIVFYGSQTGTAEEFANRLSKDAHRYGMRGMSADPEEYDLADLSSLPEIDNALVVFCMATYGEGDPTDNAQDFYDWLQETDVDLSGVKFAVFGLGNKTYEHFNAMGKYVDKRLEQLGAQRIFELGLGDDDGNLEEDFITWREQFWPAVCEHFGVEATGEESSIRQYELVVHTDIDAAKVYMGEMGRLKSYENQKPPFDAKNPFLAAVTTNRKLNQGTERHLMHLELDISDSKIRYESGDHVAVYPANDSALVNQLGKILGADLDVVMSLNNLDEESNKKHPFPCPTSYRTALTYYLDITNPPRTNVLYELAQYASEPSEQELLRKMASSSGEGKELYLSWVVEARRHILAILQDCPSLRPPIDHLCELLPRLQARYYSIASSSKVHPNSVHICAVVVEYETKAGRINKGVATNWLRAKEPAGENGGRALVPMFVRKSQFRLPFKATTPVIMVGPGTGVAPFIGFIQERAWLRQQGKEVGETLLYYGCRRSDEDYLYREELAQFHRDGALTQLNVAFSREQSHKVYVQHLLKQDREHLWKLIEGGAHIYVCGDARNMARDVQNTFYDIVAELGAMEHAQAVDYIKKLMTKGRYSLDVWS
The method, then:
as §3, §4, §5

Data set [3] deals with T3, A. gambiae CPR (Anopheles gambiae, UniProt Q86QH5, H459Y/V230A). The data set is described as follows: 2′-5′-ADP Sepharose binding of CPR from whole fly extracts. The note with it: crude extracts of A. gambiae.
Description: 0.1 g of frozen adult A. gambiae or D. melanogaster flies were added to a pre-chilled mortar and ground to a powder in the presence of liquid nitrogen. The powder was transferred to a 50 ml Falcon tube and 2.5 mls of cold solubilisation buffer (20 mM Tris-Cl pH 8; 10% glycerol; 100 mM KCl and 20 mM CHAPS) added. The suspensions were mixed on a rotary wheel at 4° C. for 2 hrs to solubilise the membrane bound proteins, then centrifuged (5 min; 12,000 rpm; 4° C.) to clarify. […] The clarified whole fly protein extracts were applied to the column and the flow-through collected. The column was washed with 5 ml of solubilisation buffer to remove non-binding proteins. To elute the bound proteins, 3×200 μl of 50 mM 2′ AMP in 0.5×solubilisation buffer was added to the mini-columns, and the 3×200 μl elution fractions collected in Eppendorf tubes. To detect CPR, 25 μl each of solubilised pre-column extract (total fly protein); flow through (unbound protein) and eluted proteins were run on a NuPAGE 4-12% Bis-Tris Gel (Invitrogen; UK) and transferred onto Protran® nitrocellulose membrane (Schleicher & Schuell; Germany) according to the manufacturer's instructions. The membrane was blocked overnight at 4° C. in TBST & 5% milk powder, then incubated for 1 hr with a 1:10000 dilution of anti-Ag CPR primary antibody. […]
For data set [4], the target named is T3, A. gambiae CPR. Description: biochemical. It is filed as biochemical. The method, then:
as §1, §2

Where “and” joins values, the source holds several entries; their conditions need not be identical. Identical values can stand only once. Like-named read-outs stand apart in the source and are kept apart here.

T3 sequence (Q86QH5 entry or part of it V230A/H459Y): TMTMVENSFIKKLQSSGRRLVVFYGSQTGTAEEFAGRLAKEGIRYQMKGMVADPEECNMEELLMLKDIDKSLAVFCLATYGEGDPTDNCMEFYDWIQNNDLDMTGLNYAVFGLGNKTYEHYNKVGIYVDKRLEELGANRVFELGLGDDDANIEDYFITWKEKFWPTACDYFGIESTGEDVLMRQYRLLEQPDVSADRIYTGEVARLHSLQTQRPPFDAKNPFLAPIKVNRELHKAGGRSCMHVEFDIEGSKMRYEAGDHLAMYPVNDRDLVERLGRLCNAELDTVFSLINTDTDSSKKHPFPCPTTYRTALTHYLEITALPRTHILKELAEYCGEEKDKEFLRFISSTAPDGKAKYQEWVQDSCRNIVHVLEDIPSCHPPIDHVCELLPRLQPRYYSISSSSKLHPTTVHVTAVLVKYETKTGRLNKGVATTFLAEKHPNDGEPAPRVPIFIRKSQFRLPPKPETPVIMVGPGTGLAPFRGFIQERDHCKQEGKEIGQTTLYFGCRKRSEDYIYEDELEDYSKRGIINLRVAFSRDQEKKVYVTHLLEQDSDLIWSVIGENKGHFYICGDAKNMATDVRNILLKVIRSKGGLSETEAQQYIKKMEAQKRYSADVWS

As to 2′,5′-ADP [2′-5′-ADP], the 50% inhibitory concentration (IC50) turned out to be 28 µM against human CPR (human CPR), 234 µM in data set [1] and 10 µM in data set [2]. In addition, the “binding of CPR to 2′-5′-ADP (Sepharose)” value on A. gambiae CPR [3] is on record as “does not bind”.
For the compound `c1ccc([I+]c2ccccc2)cc1` [DPI, diphenyliodonium chloride], the IC50 at A. gambiae CPR [4] stood at 28 µM; on human CPR (human CPR) it was 361 µM.
Regarding `NC(=O)C1=CN([C@@H]2O[C@H](COP(=O)(O)OP(=O)(O)OC[C@H]3O[C@@H](n4cnc5c(N)ncnc54)[C@H](OP(=O)(O)O)[C@@H]3O)[C@@H](O)[C@H]2O)C=CC1` [NADPH, reduced form of nicotinamide adenine dinucleotide phosphate], the Km is 30 µM at A. gambiae CPR [4] (read-out: Km NADPH (apparent)); 14 µM and 15 µM on human CPR (human CPR, read-out: Km NADPH (apparent)).
As to cytochrome c, the Km with A. gambiae CPR [4] (mosquito enzyme, read-out: Km cytc) turned out to be 23 µM; with human CPR (human enzyme, read-out: Km cytc), 19 µM.
